“Also recorded” adds a separate entry of the source.
Columns and labels:
BRD4 [1] = target: T1, BRD4 (Homo sapiens, UniProt O60885); test: Summary of BRD4 degradation by CURE-PRO pairs, estimated from Western Blot or WES (Proteinsimple); type: cell-based; parameters: endogenous in cells; settings: for Degradation of BRD4 in combination with CRBN ligand [drawing 372]: third drawing (8066); for Degradation of BRD4 in combination with CRBN ligand [drawing 407]: first drawing (by text: 8048)
Source text: A black check mark indicates efficacy of 30% to 70% or higher protein degradation.

BRD4 [2] = target: T1, BRD4; test: CURE-PRO-mediated BRD4 degradation, Western blot, HeLa cells; type: cell-based; parameters: endogenous in cells; host or cells: HeLa; settings: 24 h, Western blot; for BRD4 degradation, co-treatment with CRBN ligand 8046: 1:1 with 8046, 10 μM each; for BRD4 degradation, co-treatment with CRBN ligand 8047: 1:1 with 8047, 10 μM each; for BRD4 degradation, co-treatment with CRBN ligand 8066: 1:1 with 8066, 10 μM each (BRD-E10: 10 and 100 μM); for BRD4 degradation, co-treatment with CRBN ligand 8048: 1:1 with 8048, 1-10 μM each; for BRD4 degradation, co-treatment with CRBN ligand 8049: 1:1 with 8049, 1-10 μM each; for BRD4 degradation, BRD ligand alone: BRD monomer alone
Method: All cell lines were purchased from ATCC or DSMZ and grown at 37° C. with 5% CO2. Human HeLa cells were cultured in complete growth medium (Dulbecco's modified Eagle's medium (DMEM) supplemented with 10% FBS); MCF7 cells were cultured in complete growth medium (Dulbecco's modified Eagle's medium (DMEM) supplemented with 10% FBS and 0.01 mg/ml human recombinant insulin (Sigma Aldrich); Namalwa and MOLM-13 cells were cultured in complete growth medium (RPMI 1640 medium supplemented with 10% FBS); MV-4-11 were cultured in complete growth medium (Iscove's Modified Dulbecco's medium, supplemented with 10% FBS); HCT116 cells were cultured in complete growth medium (McCoy's 5a Medium supplemented with 10% FBS). For cellular degradation of BRD4 studies, cells were seeded in a 12-well plate at 70-80% confluency, allowed to attach overnight, and incubated with the indicated compounds for the indicated time. When indicated, a 15-minute pretreatment with 10 μM pomalidomide, 10 μM VHL298, 10 μM Nutlin3a, 1 μM MG-132 or 1 μM Carfilzomib was performed before the addition of CURE-PROs. For washout studies, after CURE-PRO treatment, media was aspirated and incubated with complete medium for the indicated time before lysis.
Anti-BRD4 (13440, 1:1,000 dilution for Western Blot and 1:25 dilution for ProteinSimple); Anti-BRD2 (5848 1:1,000 dilution for Western Blot and 1:25 dilution for ProteinSimple); β-Actin (3700, 1:2,000 dilution for Western Blot), β-Actin (4970, 1:50 dilution for ProteinSimple) anti-mouse IgG-HRP, and anti-rabbit IgG-HRP antibodies were purchased Cell Signaling Technology. Anti-GAPDH (600-401-A33, 1:100 dilution for ProteinSimple) was purchased from Rockland Immunochemicals, Inc. Anti-BRD3 (sc-81202, 1:200 dilution for Western Blot) was purchased from Santa Cruz Biotechnology.
HeLa, MCF7, or HCT116 cells (2.5-3×10^6) were treated for 24 hours with the indicated compounds solubilized in DMSO. The cells were washed in ice-cold PBS and were then lysed in RIPA lysis buffer (150 mM NaCl, 5 mM EDTA, 1% NP-40, 0.5% sodium deoxycholate, 0.1% SDS, 50 mM Tris, pH 8.0.) with Roche protease inhibitor complete cocktail and phosphatase inhibitors (10 mM sodium fluoride, 10 mM sodium pyrophosphate, 1 mM sodium orthovanadate and 20 mM β-glycerophosphate). The total protein concentrations were determined by Bradford Protein Assay and 10-20 μg of protein was loaded onto 4-15% Tris-Glycine gradient gels (Biorad). After standard gel electrophoresis, the separated proteins were transferred to PVDF membrane by wet transfer. The immunoblots were then blocked for 1 hour in 5% skim milk in TBST or 5% BSA in TBST, according to manufacturer's instructions, before an overnight incubation at 4° C. with indicated antibodies and membranes. Membranes were then incubated with the appropriate horseradish peroxidase-conjugated secondary antibodies (1:5,000 dilution) for 1 h at room temperature and the bands were visualized using the Clarity Max Western ECL Substrate (Biorad) and the ChemiDoc Imaging System (Biorad). Signal was detected with ECL Western Blotting Substrate (Pierce) and X-ray film processed with a Konica SRX-101 X-ray film processor or captured by Bio-Rad's Chemidoc Imaging system.
HeLa cells (2.5×106) were treated for 24 hours with the sample compounds solubilized in DMSO. Compounds were added at 1-10 μM each. Standardized protein samples were electrophoresed and imaged as described in the immunoblotting description above. FIGS. 6-18 depicts the CURE-PRO-mediated BRD4 degradation for BRD monomers (JQ1 derivatives comprising of catechol linkers), and CRBN ligands, 8048 and 8049 (pomalidomide derivatives comprising boronic acid linkers) combined in a 1:1 ratio.
HeLa cells (2.5×106) were treated for 24 hours with the compounds solubilized in DMSO. The compounds were added at 10 μM each. Standardized protein samples were electrophoresed and imaged as described in the immunoblotting section above. […]

[3] = Table 4, aryl-boronic acid-containing CRBN ligand

| Compound | Degradation of BRD4 in combination with CRBN ligand [drawing 407] (BRD4 [1]; [3]) | BRD4 degradation, co-treatment with CRBN ligand 8048 (BRD4 [2]) | BRD4 degradation, co-treatment with CRBN ligand 8049 (BRD4 [2]) | BRD4 degradation, BRD ligand alone (BRD4 [2]) | further results |
| --- | --- | --- | --- | --- | --- |
| CCNC(=O)C[C@@H]1N=C(c2ccc(Cl)cc2)c2cc(OCCOCCOCCOCCNC(=O)c3ccc(B(O)O)cc3)ccc2-n2c(C)nnc21 [BRD-E43] | – | – | – | – | Degradation of BRD4 in combination with CRBN ligand [drawing 371] (BRD4 [1]; Table 1, CRBN ligand, second drawing (8047)): ✓ (A black check mark indicates efficacy of 30% to 70% or higher protein degradation); Degradation of BRD4 in combination with CRBN ligand [drawing 372] (BRD4 [1]; Table 1, CRBN ligand): ✓ (A black check mark indicates efficacy of 30% to 70% or higher protein degradation); BRD4 degradation, co-treatment with CRBN ligand 8046 (BRD4 [2]): but not 8046; BRD4 degradation, co-treatment with CRBN ligand 8047 (BRD4 [2]): causes degradation of BRD4; BRD4 degradation, co-treatment with CRBN ligand 8066 (BRD4 [2]): causes degradation of BRD4; also recorded: Degradation is noted |
| COc1ccc2c(c1)C(c1ccc(Cl)cc1)=N[C@@H](CC(=O)NCCOCCOCCNC(=O)c1ccc(B(O)O)cc1)c1nnc(C)n1-2 [BRD-E45] | – | – | – | – | Degradation of BRD4 in combination with CRBN ligand [drawing 372] (BRD4 [1]; Table 1, CRBN ligand): ✓ (A black check mark indicates efficacy of 30% to 70% or higher protein degradation); Degradation of BRD4 in combination with VHL ligand [drawing 397] (BRD4 [1]; Table 3, aromatic 1,2-diol-containing VHL ligand, second drawing (8305)): ✓ (A black check mark indicates efficacy of 30% to 70% or higher protein degradation); BRD4 degradation, co-treatment with CRBN ligand 8066 (BRD4 [2]): causes degradation of BRD4 |
| COc1ccc2c(c1)C(c1ccc(Cl)cc1)=N[C@@H](CC(=O)Nc1ccc(B(O)O)cc1)c1nnc(C)n1-2 [BRD-E74, (4-(2-((4S)-6-(4-chlorophenyl)-8-methoxy-1-methyl-4H-benzo[f][1,2,4]triazolo[4,3-a][1,4]diazepin-4-yl)acetamido)phenyl)boronic acid] | – | – | – | – | Degradation of BRD4 in combination with CRBN ligand [drawing 370] (BRD4 [1]; Table 1, aromatic 1,2-diol- or hindered cis-1,2-diol-containing CRBN ligand, first drawing (8046)): ✓ (A black check mark indicates efficacy of 30% to 70% or higher protein degradation); BRD4 degradation, co-treatment with CRBN ligand 8046 (BRD4 [2]): causes degradation of BRD4; BRD4 degradation, co-treatment with CRBN ligand 8047 (BRD4 [2]): causes degradation of BRD4 |
| COc1ccc2c(c1)C(c1ccc(Cl)cc1)=N[C@@H](CC(=O)NCCNC(=O)c1ccc(O)c(O)c1)c1nnc(C)n1-2 [BRD-N1] | ✓ (A black check mark indicates efficacy of 30% to 70% or higher protein degradation) | causes degradation of BRD4; also recorded: Degradation is noted | no evidence of BRD4 degradation | no degradation of BRD4 | – |
| COc1ccc2c(c1)C(c1ccc(Cl)cc1)=N[C@@H](CC(=O)NCCCCNC(=O)c1ccc(O)c(O)c1)c1nnc(C)n1-2 [BRD-N5] | ✓ (A black check mark indicates efficacy of 30% to 70% or higher protein degradation) | causes degradation of BRD4; also recorded: Degradation is noted | no evidence of BRD4 degradation | no degradation of BRD4 | – |
| COc1ccc2c(c1)C(c1ccc(Cl)cc1)=N[C@@H](CC(=O)NCCCCNC(=O)c1cccc(O)c1O)c1nnc(C)n1-2 [BRD-N6] | ✓ (A black check mark indicates efficacy of 30% to 70% or higher protein degradation) | causes degradation of BRD4; also recorded: Degradation is noted | no evidence of BRD4 degradation | no degradation of BRD4 | – |
| CCNC(=O)C[C@@H]1N=C(c2ccc(Cl)cc2)c2cc(OCCCCC(=O)Nc3ccc(O)c(O)c3)ccc2-n2c(C)nnc21 [BRD-N22, 5-(((4S)-6-(4-chlorophenyl)-4-(2-(ethylamino)-2-oxoethyl)-1-methyl-4H-benzo[f][1,2,4]triazolo[4,3-a][1,4]diazepin-8-yl)oxy)-N-(3,4-dihydroxyphenyl)pentanamide] | ✓ (A black check mark indicates efficacy of 30% to 70% or higher protein degradation) | causes degradation of BRD4; also recorded: Degradation is noted | no evidence of BRD4 degradation | no degradation of BRD4 | – |
| COc1ccc2c(c1)C(c1ccc(Cl)cc1)=N[C@@H](CC(=O)NCCNC(=O)Cc1ccc(O)c(O)c1)c1nnc(C)n1-2 [BRD-N30] | ✓ (A black check mark indicates efficacy of 30% to 70% or higher protein degradation) | causes degradation of BRD4 | – | no degradation of BRD4 | – |
| CCNC(=O)C[C@@H]1N=C(c2ccc(Cl)cc2)c2cc(OCCOCCNC(=O)c3ccc(O)c(O)c3)ccc2-n2c(C)nnc21 [BRD-N38, N-(2-(2-(((4S)-6-(4-chlorophenyl)-4-(2-(ethylamino)-2-oxoethyl)-1-methyl-4H-benzo[f][1,2,4]triazolo[4,3-a][1,4]diazepin-8-yl)oxy)ethoxy)ethyl)-3,4-dihydroxybenzamide] | ✓ (A black check mark indicates efficacy of 30% to 70% or higher protein degradation) | causes degradation of BRD4 | – | no degradation of BRD4 | – |
| COc1ccc2c(c1)C(c1ccc(Cl)cc1)=N[C@@H](CC(=O)NCCOCCOCCOCCNC(=O)c1ccc(O)c(O)c1)c1nnc(C)n1-2 [BRD-N44] | ✓ (A black check mark indicates efficacy of 30% to 70% or higher protein degradation) | causes degradation of BRD4 | – | no degradation of BRD4 | – |
| CCNC(=O)C[C@@H]1N=C(c2ccc(Cl)cc2)c2cc(-c3ccc4cc(O)c(O)cc4c3)ccc2-n2c(C)nnc21 [BRD-N67] | ✓ (A black check mark indicates efficacy of 30% to 70% or higher protein degradation) | causes degradation of BRD4 | causes degradation of BRD4 | no degradation of BRD4 | Degradation of BRD4 in combination with CRBN ligand [drawing 408] (BRD4 [1]; Table 4, aryl-boronic acid-containing CRBN ligand, second drawing (by text: 8049)): ✓ (A black check mark indicates efficacy of 30% to 70% or higher protein degradation) |
